# Test results reported in patent US20250129083A1, “IMIDAZOTETRAZINE COMPOUNDS AND TREATMENT OF TMZ-RESISTANT CANCERS” (THE BOARD OF TRUSTEES OF THE UNIVERSITY OF ILLINOIS, priority 2022, published 2025).
# Read-outs that look alike come from different tables or passages of the source.
# Tests used:
# [1] = tested on: cancer cells; experiment: Rapid cancer cell death phenotype; type: cell-based; conditions: relative to TMZ
# Text: FIG. 8A-C. Rapid Cancer Cell Death Phenotype.
# [2] = tested on: HCT116 cells; experiment: Cell viability assay (Alamar Blue, 7 days), HCT116; type: cell-based; conditions: Homo sapiens, HCT-116, 168 h; MGMT (−) MMR (−); 7 days; read-out: Activity, HCT116
# Protocol: (§1) Cell Culture and Reagents. All cell lines were grown in a 37° C., 5% CO2, humidified environment, in media containing 1% penicillin/streptomycin. Stable cell line generation of GL261 MGMT+ was purchased from Creative Biogene. Cell culture conditions are as follows: cell lines U87, T98G, and RKO were grown in EMEM with 10% FBS. D54, GL261, GL261 MGMT+, and U118MG cell lines were grown in DMEM with 10% FBS. HCT116 cells were grown in RMPI with 10% FBS. D341 Med cells were grown in EMEM with 20% FBS. Temozolomide (TMZ) was purchased from AK Scientific. TMZ analogues were synthesized as described below. Compounds were dissolved in DMSO (1% final concentration, Fisher Chemical) for cell culture studies.
# (§2) Cell Viability Assays. Cells were harvested, seeded in a 96-well plate and allowed to adhere. After three hours, compound was added to each well in DMSO (1% final concentration). Cells were incubated for seven days (unless otherwise noted) before viability was assessed by the Alamar Blue assay. Raptinal (20 μM) was used as a dead control.
# [3] = Hepatic metabolism: stability in mouse liver microsomes; type: in vitro ADME
# [4] = Brain tissue binding; type: in vitro ADME; conditions: 10 uM, 1 h at 37 C in brain tissue homogenate
# [5] = tested on: RKO colon cancer cell line; experiment: Cell viability assay (Alamar Blue, 7 days), RKO; type: cell-based; conditions: 168 h; 7 days; read-out: Activity, RKO
# Protocol: as §1, §2
# [6] = Syngeneic subcutaneous model; type: in vivo; conditions: C57BL/6 mice, 1×10^6 cells; 50 mg/kg IV 1×/day over 5 days from day 5
# Protocol: FIG. 10A-B. Syngeneic Subcutaneous Model (A, B). TABZ and TMZ in vivo: C57BL/6 mice were inoculated with 1×10^6 cells and treated xl/day over 5 days with either vehicle, TMZ, or TABZ (via IV, 50 mg/kg, starting on day 5).
# [7] = tested on: E. coli WP2 uvrA pKM101 strain; experiment: Ames test, E. coli WP2 uvrA pKM101; type: cell-based; conditions: 30 μM
# Protocol: (§3) Next, we measured the mutagenicity of CPZ versus TMZ. TMZ and other DNA methylating chemotherapies are known mutagens, inducing G:C→A:T mutations due to erroneous recognition of O^6-methylguanine. […] CPZ and TMZ (at 30 μM) were also assessed in the E. coli WP2 uvrA pKM101 strain, which is considered one of the more sensitive Ames tester strains available.
# [8] = tested on: U87 GBM cell line; experiment: Cell viability assay (Alamar Blue, 7 days), U87; type: cell-based, human; conditions: Homo sapiens, 168 h, MGMT (−) MMR (+), 600 c/w, SEM, n=3, read-out: Activity, U87
# Protocol: as §1, §2
# (§4) Plated 1500 c/w for GL261; 600 c/w for U87; 600 c/w for U118MG; 1500 c/w for GL261 MGMT+ Incubated ovn and added 1 μL of compound in DMSO the next day. Incubated over 7 days; added Alamar Blue to assess cell viability and used 10 μM Raptinal as dead control. Error is SEM, n=3.
# [9] = Solubility in IV formulations; type: physicochemical; conditions: IV formulation
# [10] = tested on: U118MG cells; experiment: Cell viability assay (Alamar Blue, 7 days), U118MG; type: cell-based; conditions: Homo sapiens, U-118-MG, 168 h, MGMT (+) MMR (+), 600 c/w, SEM, n=3
# Protocol: as §1, §2, §4
# [11] = Maximum tolerated dose / tolerability in mice; type: in vivo; conditions: for MTD at 5 days: in vivo, 66 mg/kg, once per day over 5 days
# [12] = tested on: GL261 cells; experiment: Cell viability assay (Alamar Blue, 7 days), GL261; type: cell-based; conditions: Mus musculus, GL261, 168 h; MGMT (−) MMR (+); 7 days; 1500 c/w; SEM, n=3; read-out: Activity, GL261
# Protocol: as §1, §2, §4
# [13] = tested on: S. typhimurium TA100 strain; experiment: Ames test, TA100; type: cell-based; conditions: 30 μM
# Protocol: as §3
# Ames Test. Compounds were assessed at the indicated concentrations in the TA100 tester strain using the Muta-ChromoPlate 96-well microplate version of the Ames test (Environmental Bio-Detection Products, Prod. No. 5051) according to manufacturer's instructions. In brief, TA100 S. typhimurium bacteria were grown overnight and plated with compound, growth medium, and indicator (no S9 activation) in 96 well plates. Bacteria were incubated for 5 days before the number of wells per 96 well plate containing revertant colonies were identified colorimetrically.
# [14] = Hydrolytic stability studies; type: physicochemical; conditions: PBS, pH 7.4, 37° C.; HPLC
# Protocol: Hydrolytic Stability Studies. Compound (100 μM) was incubated at 37° C. in PBS at pH 7.4 (unless otherwise noted). At the indicated time point, an aliquot was collected and analyzed by HPLC. Compound peaks were integrated and compared to the integration at to calculate the percentage of prodrug remaining.
# [15] = tested on: GL261 MGMT+ cells; experiment: Cell viability assay (Alamar Blue, 7 days), GL261 MGMT+; type: cell-based; conditions: Mus musculus, GL261, 168 h; MGMT (+) MMR (+); 7 days; 1500 c/w; SEM, n=3; read-out: Activity, GL261 MGMT+
# Protocol: To further explore the ability of CPZ to evade MGMT-mediated resistance, MGMT-expressing T98G cells were pretreated with MGMT inhibitor O6BG followed by treatment with TMZ or CPZ. […] This cell death potentiation by TMZ upon treatment with an MGMT inhibitor was also observed in MGMT-expressing cell lines U118MG and RKO, whereas the efficacy of CPZ was again unaffected. For MGMT (−)/MMR (−) HCT116 cells, negligible potentiation of TMZ cytotoxicity was observed upon pretreatment with O6BG, confirming that loss of MMR capacity, not MGMT expression, was responsible for resistance to TMZ in HCT116 cells. Additionally, human MGMT was knocked into the MGMT-negative mouse glioma cell line, GL261, establishing the novel cell line GL261 MGMT+.
# as §1, §2, §4
# [16] = 6.6 mg/mL solution for 200 μL injection
compound,measurement,setting,value
"CC#CCn1nnc2c(C(=O)N(C)C)ncn2c1=O [TABZ, 3-(but-2-yn-1-yl)-N,N-dimethyl-4-oxo-3,4-dihydroimidazo[5,1-d][1,2,3,5]tetrazine-8-carboxamide]",Speed of cell death induction,[1],induce cell death quickly relative to TMZ
same,IC50,[2],6 ± 0.42 µM
same,"Stability (2 h, with MLM)","[3]; percentage remaining relative to t0, mouse liver microsomes, SEM, n ≥ 2",77 ± 2%
same,"Stability (2 h, no MLM)","[3]; percentage remaining, microsomes replaced with PBS",87 ± 2%
same,"Brain tissue binding, insoluble fraction, tissue homogenizer",[4],40 ± 4%
same,"Brain tissue binding, insoluble fraction, ultrasonication",[4],39 ± 4%
same,"Brain tissue binding, soluble fraction, tissue homogenizer",[4],64 ± 4%
same,"Brain tissue binding, soluble fraction, ultrasonication",[4],61 ± 4%
same,IC50,[5],9 ± 1 µM
same,Tumor growth,[6],no exacerbation
same,"Mutagenicity, E. coli WP2 uvrA pKM101",[7],non-mutagenic
same,IC50,[8],16 ± 2 µM
same,Solubility in 20/80 DMSO/PBS,[9]; 5 mg/mL solution for 100 μL injection,Soluble*
same,Solubility in 15/7/5/73 DMSO/NMP/T20/20% SPE-βCD,[9]; [16],Soluble >25 min
same,Solubility in 15/10/75 DMSO/NMP/20% SPE-βCD,[9]; [16],Soluble 20 min
same,IC50,[10],24 ± 5 µM
same,"Tolerated dose, 1×/day via IV injection",[11],50 mg/kg
same,MTD at 5 days,"[11]; female, C57BL/6, mouse, ip, intraperitoneal, read-out: MTD, I.P.",66 mg/kg
same,MTD at 5 days,"[11]; mouse, intravenous, read-out: MTD, I.V.",66 mg/kg
same,IC50,[12],35 ± 2 µM
same,"Mutagenicity, TA100",[13],non-mutagenic
same,Hydrolytic stability: percentage of prodrug remaining after 2 hours,[14],31±1%
same,IC50,[15],18 ± 1 µM
